The results in this text go back to ChEMBL document CHEMBL1201862, “PubChem BioAssay data set” (2004).

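Where inhibition never reached the appropriate level, the endpoint shown equals the highest concentration tested. Otherwise, values were interpolated linearly from a five-concentration, 48-hour dose response in 96-well plates. GI50 = concentration required for 50% inhibition of growth.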 Activity calls are given as the source filed them. Cut-off read from the data, not from the text of the source: active = GI50 up to about 1.1 µM and inactive = higher.

Some test systems named below: HOP-92; OVCAR-3; TK-10; RPMI-8226; BT-549; A498; UO-31; RXF 393; KM12; NCI/ADR-RES; SW-620; OVCAR-5; HCT-116; SR; M14; 786-0; NCI-H460.
Common to all, as to assay: DTP human tumour cell line panel, 48 h

With `CC1=C(C(=O)NNC(=O)C(N)=O)CC(C(=O)NNC(=O)C(N)=O)=C(C)N1`, the GI50 with HOP-92, in the experiment with OVCAR-3, in the experiment with TK-10, with RPMI-8226, in the experiment with BT-549 and in the experiment on A498 was > 100 µM (inactive) in each case. For the same compound, the GI50 with UO-31, in the experiment with RXF 393, in the experiment with KM12, in the experiment with NCI/ADR-RES, in the experiment on SW-620 and in the experiment on OVCAR-5 was > 100 µM (inactive) throughout. The GI50 in the experiment with HCT-116, with SR, in the experiment on M14, with 786-0 and with NCI-H460 was > 100 µM (inactive) each time.

Consider `CC(C)(CC1(C)NC(=O)NC1=O)OCc1ccccc1` (stereo not drawn), for which the GI50 in the experiment on HOP-92, in the experiment on OVCAR-3, in the experiment with TK-10, with RPMI-8226, with BT-549 and in the experiment on A498 was > 100 µM (inactive) in each case. Also, the GI50 in the experiment with UO-31, in the experiment with RXF 393, in the experiment with KM12, with NCI/ADR-RES, in the experiment with SW-620 and in the experiment on OVCAR-5 was > 100 µM (inactive) in each case. Further, the GI50 with HCT-116, in the experiment with SR, in the experiment with M14, in the experiment on 786-0 and in the experiment with NCI-H460 was > 100 µM (inactive) in each case.

For `CC(=O)NC1C(OCc2ccccc2)OC(CO)C(O)C1OCC(=O)NC(C)C(=O)NC(CCC(=O)NCCCCCNc1c2ccccc2nc2cccc([N+](=O)[O-])c12)C(N)=O` (stereo not drawn), the GI50 is < 0.0001 µM (active) with HOP-92; < 0.01 µM (active) in the experiment with OVCAR-3; 0.023 µM (active) in the experiment on TK-10; < 0.0001 µM (active) in the experiment on RPMI-8226; < 0.0001 µM (active) in the experiment on BT-549; < 0.0001 µM (active) in the experiment on A498. Besides, the GI50 in the experiment on UO-31 was < 0.01 µM (active); in the experiment on RXF 393, < 0.01 µM (active); in the experiment with KM12, < 0.0001 µM (active); with NCI/ADR-RES it was 0.000327 µM (active); in the experiment on SW-620, < 0.0001 µM (active); in the experiment on OVCAR-5, < 0.0001 µM (active). The GI50 in the experiment with HCT-116 is < 0.0001 µM (active); with SR, 0.00217 µM (active); in the experiment on M14, < 0.0001 µM (active); in the experiment with 786-0, < 0.0001 µM (active); with NCI-H460, < 0.0001 µM (active).

`Cc1cccc(C2NC(=O)c3ccccc3N2)c1` (stereo not drawn): the GI50 is > 58.9 µM (inactive) in the experiment with HOP-92; 3.22 µM (inactive) in the experiment on OVCAR-3; > 84.1 µM (inactive) in the experiment with TK-10; 3.2 µM (inactive) in the experiment with RPMI-8226; 5.68 µM (inactive) in the experiment with BT-549; 6.4 µM (inactive) with A498. In addition, the GI50 was > 26.4 µM (inactive) with UO-31; 4.44 µM (inactive) in the experiment on RXF 393; 3.21 µM (inactive) with KM12; 4.67 µM (inactive) in the experiment on NCI/ADR-RES; 5.62 µM (inactive) with SW-620; 17.3 µM (inactive) with OVCAR-5. For the same compound, the GI50 in the experiment on HCT-116 was 3.28 µM (inactive); with SR, 0.791 µM (active); with M14, 2.64 µM (inactive); in the experiment with 786-0, 4.55 µM (inactive); in the experiment with NCI-H460, 3.3 µM (inactive).

One may read the GI50 as the concentration that inhibits growth by half.
